According to paper PMC10714400, “Antimicrobial Peptide–Peptoid Hybrids with and without Membrane Disruption” (ACS Infectious Diseases, 2023):
Converted amounts (≈) assume the structure as drawn. Where a SMILES comes first, the peptide text is derived from it. [ ]: non-standard residue; d: D form.

Experiments:
[1] = tested on: ZEM9A (clinical MDR P. aeruginosa isolate)
In short: (§1)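 MIC read visually after MTT staining: lowest compound concentration preventing visible growth (yellow wells). Inoculum ~5 × 10^5 CFU per well in MH broth; static incubation at 37 °C for ca. 18 h.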

A. baumannii ATCC19606 = tested on: A. baumannii ATCC19606
In short: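 MTT added (20–30 min, room temperature); MIC read by eye as lowest concentration inhibiting visible growth (yellow). Polymyxin B positive control from 16 μg/mL.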

S. aureus COL (MRSA) = tested on: S. aureus COL (MRSA)
In short: as §1

P. aeruginosa PAO1 = tested on: P. aeruginosa PAO1
In short: as §1

E. coli W3110 = tested on: E. coli W3110
In short: as §1

[2] = tested on: ZEM-1A (clinical MDR P. aeruginosa isolate)
In short: as §1

PA14 4.13 (phoQ) = tested on: PA14 4.13 (phoQ)
In short: as §1

[3] = diluted MH ([…] MH, pH 8.5) per Table 1 footnote b, 16–20 h at 37 °C
[4] = full MH, pH 7.4, 16–20 h at 37 °C

CC(C)C[C@H](NC(=O)[C@H](CC(C)C)NC(=O)[C@H](CC(C)C)NC(=O)[C@@H](CCCCN)NC(=O)[C@H](CC(C)C)NC(=O)[C@H](CC(C)C)NC(=O)[C@@H](CCCCN)NC(=O)[C@H](CC(C)C)NC(=O)[C@H](CC(C)C)NC(=O)[C@@H](CCCCN)NC(=O)[C@H](N)CCCCN)C(N)=O [ln69, kkLLkLLkLLL, reference compound] (H-[dK][dK]LL[dK]LL[dK]LLL-NH2)
MIC P. aeruginosa ZEM9A, full MH at pH 7.4 ([1]; CSV, full MH at pH 7.4): 6 ug/mL | MIC ZEM9A ([1]; MH pH 7.4, 16–20 h at 37 °C): 4 to 8 µg/mL | MIC P. aeruginosa ZEM9A ([1]; Table S3, […] MH at pH 8.5): 2 µg/mL (≈ 1.51 µM) | MIC A. baumannii ATCC19606, […] MH at pH 7.4 (A. baumannii ATCC19606; CSV, […] MH at pH 7.4): 2 ug/mL | MIC A. baumannii ATCC19606, […] MH at pH 8.5 (A. baumannii ATCC19606; CSV, […] MH at pH 8.5): 2 ug/mL | MIC A. baumannii ATCC19606, full MH at pH 7.4 (A. baumannii ATCC19606; CSV, full MH at pH 7.4): 3 ug/mL | MIC A. baumannii ATCC19606, full MH at pH 8.5 (A. baumannii ATCC19606; CSV, full MH at pH 8.5): 12 ug/mL | MIC A. baumannii ATCC19606 […] 7.4 (A. baumannii ATCC19606; Table S2, […] MH, pH 7.4): 2 µg/mL (≈ 1.51 µM) | MIC A. baumannii ATCC19606 […] 8.5 (A. baumannii ATCC19606; Table S2, […] MH, pH 8.5): 2 µg/mL (≈ 1.51 µM) | MIC A. baumannii ATCC19606 Full MH 7.4 (A. baumannii ATCC19606; Table S2, full MH, pH 7.4): 2 to 4 µg/mL | MIC A. baumannii ATCC19606 Full MH 8.5 (A. baumannii ATCC19606; Table S2, full MH, pH 8.5): 8 to 16 µg/mL | MIC A. baumannii ATCC19606 […] (A. baumannii ATCC19606; [3]): 2 µg/mL (≈ 1.51 µM) | MIC A. baumannii ATCC19606 Full (A. baumannii ATCC19606; [4]): 2 to 4 µg/mL | MIC S. aureus COL (MRSA), […] MH at pH 7.4 (S. aureus COL (MRSA); CSV, […] MH at pH 7.4): 2 ug/mL | MIC S. aureus COL (MRSA), […] MH at pH 8.5 (S. aureus COL (MRSA); CSV, […] MH at pH 8.5): 2 ug/mL | MIC S. aureus COL (MRSA), full MH at pH 7.4 (S. aureus COL (MRSA); CSV, full MH at pH 7.4): 16 ug/mL | MIC S. aureus COL (MRSA), full MH at pH 8.5 (S. aureus COL (MRSA); CSV, full MH at pH 8.5): 16 ug/mL | MIC S. aureus COL (MRSA) […] 7.4 (S. aureus COL (MRSA); Table S2, […] MH, pH 7.4): 2 µg/mL (≈ 1.51 µM) | MIC S. aureus COL (MRSA) […] 8.5 (S. aureus COL (MRSA); Table S2, […] MH, pH 8.5): 2 µg/mL (≈ 1.51 µM) | MIC S. aureus COL (MRSA) Full MH 7.4 (S. aureus COL (MRSA); Table S2, full MH, pH 7.4): 16 µg/mL (≈ 12.1 µM) | MIC S. aureus COL (MRSA) Full MH 8.5 (S. aureus COL (MRSA); Table S2, full MH, pH 8.5): 16 µg/mL (≈ 12.1 µM) | MIC S. aureus COL (MRSA) […] (S. aureus COL (MRSA); [3]): 2 µg/mL (≈ 1.51 µM) | MIC S. aureus COL (MRSA) Full (S. aureus COL (MRSA); [4]): 16 µg/mL (≈ 12.1 µM) | MIC P. aeruginosa PAO1, […] MH at pH 7.4 (P. aeruginosa PAO1; CSV, […] MH at pH 7.4): 4 ug/mL | MIC P. aeruginosa PAO1, […] MH at pH 8.5 (P. aeruginosa PAO1; CSV, […] MH at pH 8.5): 2 ug/mL | MIC P. aeruginosa PAO1, full MH at pH 7.4 (P. aeruginosa PAO1; CSV, full MH at pH 7.4): 8 ug/mL | MIC P. aeruginosa PAO1, full MH at pH 8.5 (P. aeruginosa PAO1; CSV, full MH at pH 8.5): 8 ug/mL | MIC P. aeruginosa PAO1 […] 7.4 (P. aeruginosa PAO1; Table S2, […] MH, pH 7.4): 4 µg/mL (≈ 3.03 µM) | MIC P. aeruginosa PAO1 […] 8.5 (P. aeruginosa PAO1; Table S2, […] MH, pH 8.5): 2 µg/mL (≈ 1.51 µM) | MIC P. aeruginosa PAO1 Full MH 7.4 (P. aeruginosa PAO1; Table S2, full MH, pH 7.4): 8 µg/mL (≈ 6.05 µM) | MIC P. aeruginosa PAO1 Full MH 8.5 (P. aeruginosa PAO1; Table S2, full MH, pH 8.5): 8 µg/mL (≈ 6.05 µM) | MIC P. aeruginosa PAO1 […] (P. aeruginosa PAO1; [3]): 4 µg/mL (≈ 3.03 µM) | MIC P. aeruginosa PAO1 Full (P. aeruginosa PAO1; [4]): 8 µg/mL (≈ 6.05 µM) | MIC E. coli W3110, […] MH at pH 7.4 (E. coli W3110; CSV, […] MH at pH 7.4): 2 ug/mL | MIC E. coli W3110, […] MH at pH 8.5 (E. coli W3110; CSV, […] MH at pH 8.5): 2 ug/mL | MIC E. coli W3110, full MH at pH 7.4 (E. coli W3110; CSV, full MH at pH 7.4): 4 ug/mL | MIC E. coli W3110 […] 7.4 (E. coli W3110; Table S2, […] MH, pH 7.4): 2 µg/mL (≈ 1.51 µM) | MIC E. coli W3110 […] 8.5 (E. coli W3110; Table S2, […] MH, pH 8.5): 2 µg/mL (≈ 1.51 µM) | MIC E. coli W3110 Full MH 7.4 (E. coli W3110; Table S2, full MH, pH 7.4): 4 µg/mL (≈ 3.03 µM) | MIC E. coli W3110 Full MH 8.5 (E. coli W3110; Table S2, full MH, pH 8.5): 16 µg/mL (≈ 12.1 µM) | MIC P. aeruginosa ZEM-1A, […] MH at pH 8.5 ([2]; CSV, […] MH at pH 8.5): 2 ug/mL | MIC P. aeruginosa ZEM-1A, full MH at pH 7.4 ([2]; CSV, full MH at pH 7.4): 2 ug/mL | MIC P. aeruginosa ZEM-1A ([2]; Table S3, […] MH at pH 8.5): 2 µg/mL (≈ 1.51 µM) | MIC P. aeruginosa PA14 4.13, […] MH at pH 8.5 (PA14 4.13 (phoQ); CSV, […] MH at pH 8.5): 3 ug/mL | MIC P. aeruginosa PA14 4.13, full MH at pH 7.4 (PA14 4.13 (phoQ); CSV, full MH at pH 7.4): 4 ug/mL | MIC PA14 4.13 (phoQ) (PA14 4.13 (phoQ); MH pH 7.4, 16–20 h at 37 °C): 4 µg/mL (≈ 3.03 µM) | MIC P. aeruginosa PA14 4.13 (PA14 4.13 (phoQ); Table S3, […] MH at pH 8.5): 2 to 4 µg/mL
